Laboratory results reported in patent US8287921B1, “Formulations against cutaneous leishmaniasis” (priority 2011, dated 2012).
Converted amounts (≈) assume the structure as drawn.

How the values were obtained:
[1] = test system: Leishmania promastigotes; assay: In vitro leishmanicidal assay; type: cell-based; conditions: 72 hrs, 22-25° C.
Method: Leishmania promastigotes were grown in bulk early in modified NNN biphasic medium using normal physiological saline. Leishmania parasite promastigotes were cultured with RPMI 1640 medium (Sigma, St. Louis, USA) supplemented with 10% heat inactivated foetal Calf serum (FCS) (PAA Laboratories GmbH, Austria) Parasites at log phase were centrifuged at 2000 rpm for 10 minutes, and washed three times with saline at same speed and time. Parasites were diluted with fresh culture medium to a final density of 1×10^6 cells/ml.
In a 96-well micro titer plate, medium was added in different wells, 20 μl of the experimental compound was added in medium and serially diluted. 100 μl of parasite culture was added in all wells. Two rows were left for negative and positive control. Negative controls receives medium while the positive control contains varying concentrations of standard antileishmanial compound e.g., Amphotericin B (MP Biomedical Inc.), Pantamidine (ICN Biomedical Inc.). The plate was incubated between 22-25° C. for 72 hrs. […] All assays were run in duplicate (5).

[2] = test system: 3T3 cell lines (Normal Fibroblast cell); assay: Cytotoxic activity against 3T3 cell lines (MTT assay); type: cell-based, Mouse; conditions: 72 h, 1-100 μg/mL
Method: Cytotoxic activity of compounds was evaluated in 96-well flat-bottomed micro plates by using the standard MTT (3-[4,5-dimethylthiazole-2-yl]-2,5-diphenyl-tetrazolium bromide) colorimetric assay1. For this purpose, 3T3 (Mouse fibroblast) were cultured in Dulbecco's Modified Eagle's Medium, supplemented with 5% of foetal bovine serum (FBS), 100 IU/mL of penicillin and 100 μg/mL of streptomycin in 25 cm^3 flask, and kept in 5% CO2 incubator at 37° C. Exponentially growing cells were harvested, counted with haemocytometer and diluted with a particular medium. Cell culture with the concentration of 1×10^5 cells/mL was prepared and introduced (100 μL/well) into 96-well plates. After overnight incubation, medium was removed and 200 μL of fresh medium was added with different concentrations of compounds (1-100 μg/mL). After 72 h, 50 μL MTT (2 mg/mL) was added to each well and incubated further for 4 hrs. Subsequently, 100 μL of DMSO was added to each well. The extent of MTT reduction to formazan within cells was calculated by measuring the absorbance at 570 nm, using a microplate ELISA reader (Spectra Max plus, Molecular Devices, CA, USA). The cytotoxicity was recorded as concentration causing 50% growth inhibition for 3T3 cells.

C[C@@H]1[C@H](O)[C@@H](C)/C=C/C=C/C=C/C=C/C=C/C=C/C=C/[C@H](O[C@@H]2O[C@H](C)[C@@H](O)[C@H](N)[C@@H]2O)C[C@@H]2O[C@](O)(C[C@@H](O)C[C@@H](O)[C@H](O)CC[C@@H](O)C[C@@H](O)CC(=O)O[C@H]1C)C[C@H](O)[C@H]2C(=O)O [Amphotericin B]
In vitro Leishmanicidal activity IC50 ± S.D [1]: 0.12 ± 0.10 µg/mL

C[C@@H]1C[C@@H]([C@H](O)CC2CC(=O)NC(=O)C2)C(=O)[C@@H](C)C1 [Cyclohexamide]
IC50 ± S.D. 3T3 cell lines [2]: 0.26 ± 0.04 µg/mL (≈ 0.924 µM)

N=C(N)c1ccc(OCCCCCOc2ccc(C(=N)N)cc2)cc1 [Pentamidine]
IC50 ([1]; Leishmania, read-out: In vitro Leishmanicidal activity IC50 ± S.D): 5.13 ± 0.02 µg/mL (≈ 15.1 µM)
